Laboratory results: patent US12679846B2, “Xanthone compound having excellent anticancer effect” (KOREA INSTITUTE OF OCEAN SCIENCE & TECHNOLOGY, priority 2021, dated 2026)

Columns and labels:
ACHN (kidney cancer) = assay: Cytotoxicity test against cancer cell lines (SRB assay), ACHN; format: cell-based; details: Homo sapiens, 48 hours
Protocol: (§1) Human cancer cell lines HCT-15 (colon cancer), NUGC-3 (stomach cancer), NCI-H23 ([…]), ACHN (kidney cancer), PC-3 (prostate cancer), and MDA-MB-231 (breast cancer) were purchased and used from American Type Culture Collection (Manassas, VA).
(§2) Each of the cancer cell lines was cultured in RPMI 1640 supplemented with 10% fetal bovine serum (FBS) at 37° C. in a humidified atmosphere of 5% CO2. Growth inhibition was evaluated for human cancer cell lines using a sulforhodamine B (SRB) assay. The cells were dispensed in a 96-well plate at a density of 8000 cells/well, and the next day, the cells were treated with each of Examples 1 and 2 (0.1% DMSO as vehicle control), and a positive control group was treated with Adriamycin. The cells were cultured for 48 hours, and then each culture medium was fixed with 50% trichloroacetic acid ([…]) and stained using 0.4% sulforhodamine B in 1% acetic acid. An unbound dye was washed with 1% acetic acid, and the dye bound to a protein was extracted with 10 mM Tris base (pH 10.5) to determine the optical density. Absorbance at 540 nm was determined using a VersaMax microplate reader (Molecular Devices, LLC, Sunnyvale, CA, USA). GI50 values were calculated using GraphPad Prism 4.0 software (GraphPad Software, Inc., San Diego, CA, USA), and the results are described in Table 2 below.

[1] = test system: human-derived breast cancer cell line MDA-MB-231; assay: Anticancer effect in animal test on breast cancer cell line (MDA-MB-231) transplanted in nude mice; format: in vivo, BALB/C nude mouse; details: for Inhibition rate (tumor size, vs Control group); tumor growth inhibition: day 23 (last day)
Protocol: Cancer cells (human-derived breast cancer cell line MDA-MB-231) that had been frozen-stored in liquid nitrogen were thawed and then cultured. The cells were cultured in a CO2 incubator (NuAire, USA) at a temperature of 37° C. and a CO2 concentration of 5%.
Lineage and Sex: Specific pathogen-free (SPF) BALB/C strain and female nude mouse (Orient Bio Co., Ltd.)
Week-old: Age at time of obtainment—5 week-old/Age at time of cancer cell transplantation—6 week-old/Age at time of drug administration—7 week-old
On the final day of cancer cell culture, all cancer cells were collected and counted, and the cell concentration was adjusted to 3×10^7 cells/ml using serum free media. 0.3 ml (9×10^6 cells/mouse) of the cell culture medium adjusted in this way per mouse was injected subcutaneously in the axillary area between the right scapular region and chest wall.
Calculation of Tumor Size Changes
After cancer cell transplantation, until the 23rd day since the average tumor size for each group reached about 14.2 mm^3, tumor sizes were measured a total 11 times in three directions using Vernier calipers for each individual, and then expressed in Equation of length×width×height/2.
On the 23rd day after the start of drug administration, all subjects were killed using CO2 gas, and the tumors were separated, weighed on chemical balance, and photographed.
Statistical analysis was performed using GraphPad Prism software from GraphPad Software. Changes in body weight and tumor volume according to a day were analyzed using a Bonferroni multiple comparison test after two-way ANOVA, and tumor weight on the final day was analyzed using a Dunnett's multiple comparison test after one-way ANOVA.

PC-3 (prostate cancer) = assay: Cytotoxicity test against cancer cell lines (SRB assay), PC-3; format: cell-based; details: Homo sapiens, PC-3, 48 hours
Protocol: as §1, §2

[2] = test system: various types of cancer cell lines; assay: Cytotoxicity test (SRB assay), summary over the six cancer cell lines; format: cell-based; details: Homo sapiens; range over six cancer cell lines; read-out: GI50 values ranging (over the cell lines of Table 2)
Protocol: as §1, §2

NUGC-3 (stomach cancer) = assay: Cytotoxicity test against cancer cell lines (SRB assay), NUGC-3; format: cell-based; details: Homo sapiens, NUGC-3, 48 hours
Protocol: as §1, §2

NCI-H23 = assay: Cytotoxicity test against cancer cell lines (SRB assay), NCI-H23; format: cell-based; details: Homo sapiens, NCI-H23, 48 hours
Protocol: as §1, §2

[3] = test system: MDA-MB-231 (breast cancer); assay: Cytotoxicity test against cancer cell lines (SRB assay), MDA-MB-231; format: cell-based; details: Homo sapiens, MDA-MB-231, 48 hours
Protocol: as §1, §2

HCT-15 (colon cancer) = assay: Cytotoxicity test against cancer cell lines (SRB assay), HCT-15; format: cell-based; details: Homo sapiens, HCT-15, 48 hours
Protocol: as §1, §2

[4] = General symptoms and autopsy findings in MDA-MB-231 cancer cell transplant nude mice; details: 2 mg/kg repeatedly intraperitoneally
Protocol: Preparation and Administration of Experimental Substances Samples were prepared for administration in Examples 1 and 2. Each of the two compounds prepared above was dissolved in dimethylacetamide (DMAC) to make 0.1 mg/ml of a stock, and then 10% tween80 and 20% HPβCD 80% were added stepwise to a 10% DMAC stock to be prepared at a final concentration of 0.01 mg/ml, and as a comparison group for comparison of anticancer effects, doxorubicin was dissolved in physiological saline to prepare an experimental substance at a concentration of 0.2 mg/ml. The prepared experimental substance was repeatedly administered intraperitoneally total 18 times by 0.2 ml per 20 g of the mouse, 5 times a week on a dosing schedule (days 0 to 4, 7 to 11, 14 to 19, 21 to 23).

[5] = day 2, 0.1 mg/kg intraperitoneally
[6] = day 4, 0.1 mg/kg intraperitoneally
[7] = day 7, 0.1 mg/kg intraperitoneally
[8] = day 9, 0.1 mg/kg intraperitoneally
[9] = day 11, 0.1 mg/kg intraperitoneally
[10] = day 14, 0.1 mg/kg intraperitoneally
[11] = day 16, 0.1 mg/kg intraperitoneally
[12] = day 18, 0.1 mg/kg intraperitoneally
[13] = day 21, 0.1 mg/kg intraperitoneally
[14] = day 23, 0.1 mg/kg intraperitoneally
[15] = day 2, 2 mg/kg intraperitoneally
[16] = day 4, 2 mg/kg intraperitoneally
[17] = day 7, 2 mg/kg intraperitoneally
[18] = day 9, 2 mg/kg intraperitoneally
[19] = day 11, 2 mg/kg intraperitoneally
[20] = day 14, 2 mg/kg intraperitoneally
[21] = day 16, 2 mg/kg intraperitoneally
[22] = day 18, 2 mg/kg intraperitoneally
[23] = day 21, 2 mg/kg intraperitoneally
[24] = day 23, 2 mg/kg intraperitoneally

COc1ccc2c(=O)c3c(O)c4c(c(O)c3oc2c1OC)CCc1c(OC2OC(C)C(OC)C(OC)C2OC)c2c(c(O)c1-4)C(=O)OC(C)C2 (stereo not shown) [Example 2, 8,15,16-trihydroxy-10,11-dimethoxy-3-methyl-5-((3,4,5-trimethoxy-6-methyltetrahydro-2H-pyran-2-yl)oxy)-3,4,6,7-tetrahydropyrano[4′,3′:6,7]naphtho[1,2-b]xanthene-1,14-dione]
GI50 (ACHN (kidney cancer)): 5 nM
Tumor size (Δt = Vt − Vo) ([1]; day 0, 0.1 mg/kg intraperitoneally): 0 mm^3
Inhibition rate (tumor size, vs Control group) [1, 5]: 53.2%
Tumor size (Δt = Vt − Vo) [1, 5]: 5.8 mm^3
Inhibition rate (tumor size, vs Control group) [1, 6]: 59.3%
Tumor size (Δt = Vt − Vo) [1, 6]: 10.1 mm^3
Inhibition rate (tumor size, vs Control group) [1, 7]: 51.6%
Tumor size (Δt = Vt − Vo) [1, 7]: 23.6 mm^3
Inhibition rate (tumor size, vs Control group) [1, 8]: 49.3%
Tumor size (Δt = Vt − Vo) [1, 8]: 30.1 mm^3
Inhibition rate (tumor size, vs Control group) [1, 9]: 43.3%
Tumor size (Δt = Vt − Vo) [1, 9]: 53.1 mm^3
Inhibition rate (tumor size, vs Control group) [1, 10]: 50.7%
Tumor size (Δt = Vt − Vo) [1, 10]: 96.9 mm^3
Inhibition rate (tumor size, vs Control group) [1, 11]: 57.9%
Tumor size (Δt = Vt − Vo) [1, 11]: 155.5 mm^3
Inhibition rate (tumor size, vs Control group) [1, 12]: 46.1%
Tumor size (Δt = Vt − Vo) [1, 12]: 297 mm^3
Inhibition rate (tumor size, vs Control group) [1, 13]: 54.6%
Tumor size (Δt = Vt − Vo) [1, 13]: 447.7 mm^3
Inhibition rate (tumor size, vs Control group); tumor growth inhibition ([1]; 0.1 mg/kg intraperitoneally): 56.7%
Inhibition rate (tumor weight, vs Control group); reduction in tumor weight [1, 14]: 52.8%
Tumor size (Δt = Vt − Vo) [1, 14]: 593.3 mm^3
Tumor weight on final day [1, 14]: 1033.4 mg
GI50 (PC-3 (prostate cancer)): 3 nM
GI50 [2]: 3 to 5 nM
GI50 (NUGC-3 (stomach cancer)): 3 nM
GI50 (NCI-H23): 4 nM
GI50 [3]: 4 nM
GI50 (HCT-15 (colon cancer)): 5 nM

COc1cccc2c1C(=O)c1c(O)c3c(c(O)c1C2=O)C[C@@](O)(C(=O)CO)C[C@@H]3O[C@H]1C[C@H](N)[C@H](O)[C@H](C)O1 [doxorubicin]
GI50 (ACHN (kidney cancer)): 151 nM
Tumor size (Δt = Vt − Vo) ([1]; day 0, 2 mg/kg intraperitoneally): 0 mm^3
Inhibition rate (tumor size, vs Control group) [1, 15]: 65.3%
Tumor size (Δt = Vt − Vo) [1, 15]: 4.3 mm^3
Inhibition rate (tumor size, vs Control group) [1, 16]: 64%
Tumor size (Δt = Vt − Vo) [1, 16]: 8.9 mm^3
Inhibition rate (tumor size, vs Control group) [1, 17]: 67.8%
Tumor size (Δt = Vt − Vo) [1, 17]: 15.7 mm^3
Inhibition rate (tumor size, vs Control group) [1, 18]: 67.9%
Tumor size (Δt = Vt − Vo) [1, 18]: 19.1 mm^3
Inhibition rate (tumor size, vs Control group) [1, 19]: 70.4%
Tumor size (Δt = Vt − Vo) [1, 19]: 27.7 mm^3
Inhibition rate (tumor size, vs Control group) [1, 20]: 80.5%
Tumor size (Δt = Vt − Vo) [1, 20]: 38.3 mm^3
Inhibition rate (tumor size, vs Control group) [1, 21]: 83%
Tumor size (Δt = Vt − Vo) [1, 21]: 62.7 mm^3
Inhibition rate (tumor size, vs Control group) [1, 22]: 83.3%
Tumor size (Δt = Vt − Vo) [1, 22]: 92 mm^3
Inhibition rate (tumor size, vs Control group) [1, 23]: 77.5%
Tumor size (Δt = Vt − Vo) [1, 23]: 222.1 mm^3
Inhibition rate (tumor size, vs Control group); tumor growth inhibition ([1]; 2 mg/kg intraperitoneally, listed as Comparison group, 2 mg/kg): 79%
Inhibition rate (tumor size, vs Control group); tumor growth inhibition ([1]; 2 mg/kg intraperitoneally, listed as comparison group, 2 mg/kg): 79.0%
Inhibition rate (tumor weight, vs Control group); reduction in tumor weight [1, 24]: 75.9%
Tumor size (Δt = Vt − Vo) [1, 24]: 287.9 mm^3
Tumor weight on final day [1, 24]: 527.9 mg
GI50 (PC-3 (prostate cancer)): 137 nM
GI50 (NUGC-3 (stomach cancer)): 145 nM
General symptoms during administration and organs upon necropsy on the final day [4]: no abnormal findings
GI50 (NCI-H23): 139 nM
GI50 [3]: 146 nM
GI50 (HCT-15 (colon cancer)): 153 nM
